Experimental data published in PMC10994559 (PLOS Neglected Tropical Diseases, 2024).
Where two headings read alike, the source gives them in different places.

Key:
L. major promastigotes = experiment: L. major promastigote viability, resazurin reduction; assay type: cell-based, Leishmania major; details: Leishmania major, read-out: viability, L.major promastigote (25 µM)
Text: (§1) The infectivity of the parasites was boosted by passaging in Balb/c mice and culturing the infected lymph nodes after six weeks. L. infantum (MHOM / BR / 76 / M4192) parasite was passaged in the same media formulation with 0.5% urine.

[1] = tested on: L. infantum promastigotes; experiment: L. infantum promastigote viability, resazurin reduction; assay type: cell-based, Leishmania infantum; details: Leishmania infantum, sheet LTC_compound_viability, value ± spread; for viability at 2.5 µM: read-out: viability, L. infantum promastigote (2.5 µM); for viability at 25 µM: read-out: viability, L. infantum promastigote (25 µM)
Text: as §1

[2] = tested on: L. major axenic amastigotes; experiment: L. major axenic amastigote viability, resazurin reduction; details: Leishmania major; for viability at 2.5 µM: read-out: viability, L.major amastigote(2.5 µM)
Description: L. major LV561(MHOM/IL/67/LRC-L137 JERICHO II) amastigotes were passaged in Grace insect medium supplemented with NaHCO3, 0.1% amikin and 20% of FCS (pH: 5.4) and kept at 33°C.
Exponential growth phase promastigotes of L. major or L. infantum and axenic amastigotes (L. major) were harvested and seeded in 384 well plates (white, non-transparent, tissue culture treated, flat bottom; Corning) (0.5x10^5 cells per well). Compounds were pre-dispensed into the plate with an Echo 650 acoustic dispenser (Beckman Coulter). After 72h incubation, resazurin was added (1:10 v/v) from a […] stock in PBS, followed by incubation for six hours. Then, fluorescence intensity was measured using a microplate reader (Synergy H1, BioTek) with excitation filter: 550 nm and emission filter: 590 nm. Efficient compounds were selected for the next round of viability assay with 2.5 μM concentrations of the compounds. […] All experiments were performed with AmB as a positive control drug in parallel.
Axenic amastigotes, the relevant form that persists in the infected host, were generated in the lab through established procedures, employing harsh pH (pH 5) and high temperature (33°C) conditions.

T. brucei brucei BSF = experiment: T. brucei BSF viability, resazurin reduction; assay type: cell-based, Trypanosoma brucei brucei; details: Trypanosoma brucei; for viability at 25 µM: read-out: viability, T.brucei (25 µM)
Description: T. brucei brucei (strain 427 Lister) blood stream form (BSF) parasites were passaged in complete HMI-9 media supplemented with 10% FCS, Pen-Strep (0.1%) and 2-mercaptoethanol (0.014 v/v) and kept in a 37° C CO2 incubator in filter-cap flasks.
(§2) Viability of T. brucei brucei BSF and T. cruzi trypomastigotes was assayed with fluorescence resazurin reduction assay, essentially as described above. […] Next, selected compounds were tested at 2.5 μM concentration, and promising compounds subjected to 18 concentrations dose response analyses. AN3057 and AmB were used as a control drug in T. brucei and T. cruzi, respectively.

T. cruzi trypomastigotes = experiment: T. cruzi viability, resazurin reduction; assay type: cell-based, Trypanosoma cruzi; details: Trypanosoma cruzi; for viability at 2.5 µM: read-out: viability, T.cruzi (2.5 µM); for viability at 25 µM: read-out: viability, T.cruzi (25 µM)
Description: T. cruzi (Y strain) trypomastigotes were passaged in liver infusion broth media supplemented with tryptose, NaCl, Na2HPO4, KCl, glucose, hemin, Pen-Strep (1%), 10% FCS (pH: 7.2) and kept at 28°C.
as §2

E. histolytica = E. histolytica viability, ATP luminescence (Cell titer glo); assay type: cell-based, Entamoeba histolytica; details: Entamoeba histolytica; for viability at 2.5 µM: read-out: viability, E.histolytica (2.5 µM); for viability at 25 µM: read-out: viability, E.histolytica (25 µM)
Description: Entamoeba histolytica (strain B2-5) was passaged in TY-1 medium (Trypticase peptone BBL, Yeast extract BBL, glucose, NaCl, K2HPO4, KH2PO4, cysteine, ascorbic acid, ammonium iron citrate, adult bovine serum, Diamond tween 80, penicillin G, amikacin (pH:6.8)) and kept in 37°C incubator in completely filled tubes with closed lid.
Viability of E. histolytica was assayed via a luminescence assay based on ATP quantification in the live cells. Briefly, 2.5x10^4 cell/ml were exposed to 25 μM of compounds in 96 well plates (non-transparent, tissue culture treated, flat bottom; SPL Life Sciences) in triplicate for 48h. Plates were incubated in sealed anaerobic bags (Oxoid AGS) together with an Anaerogen compact bag (Thermo Scientific) and anaerobic indicator (Thermo Scientific) at 37°C. Then, Cell titer glo reagent (Promega) was added to the reaction (1:5) according to manufacturers’ instruction. After 15 min of orbital shaking, followed by 10 min incubation at RT, ATP-bioluminescence was quantified at RT using a Synergy H1 plate reader (Synergy H1, BioTek). Metronidazole was included as control drug in all the assays for E. histolytica. Test compounds indicating significant growth reduction in the primary screen were subjected to potency determination. These secondary screens were essentially carried out as detailed above, but with a 9 to 16-point concentration range of the test compounds spanning 0.01–100 μM.

[3] = Cytotoxicity assay J774, resazurin reduction; assay type: cell-based, murine; details: mouse, J774 macrophage cells; for viability at 72 h, 2.5 µM: read-out: viability, J774 (2.5 µM); for viability at 72 h, 25 µM: read-out: viability, J774 (25 µM)
Description: (§3) Mammalian cell lines (J774 and HepG2) were passaged in RPMI media supplemented with MEM, Pen-Strep (1%) and 10% FCS. Cultures were kept at 37°C incubator with 5% CO2 in filter-cap flasks.
(§4) Murine macrophage cells (J774) and human hepatocyte carcinoma HepG2 cells were seeded at 0.5x10^5 cell/well in 384 well plates in triplicate, exposed to serial dilution of compounds, dispensed using an Echo 650 acoustic dispenser (Labcyte). After incubation for 72 h at 37°C, 5% CO2, cell viability was determined using fluorescence resazurin reduction assay (λEx: 550 nm; λEm: 590 nm).

[4] = tested on: intracellular L. infantum amastigotes; experiment: Parasite rescue assay (intramacrophage, J774 infected with L. infantum); assay type: cell-based, Leishmania infantum; details: J774, 25 µM; intracellular amastigote; read-out: viability, intracellular L. major amastigote (25 µM)
[5] = tested on: intracellular L. infantum amastigotes; experiment: as above; assay type: cell-based, Leishmania infantum
Description: After 24 h incubation, cells were washed five times with serum free RPMI and exposed to a serial dilution of test compounds, prepared using an acoustic dispenser (Echo 650, Labcyte), in RPMI (2% FCS). After two days, cells were washed thrice, and 20 μl of 0.05% SDS in RPMI was added upon removal of the supernatant. Upon incubation under orbital shaking for 30 seconds, cell lysis was stopped by addition of 180 μl M199 medium supplemented with 10% FCS. […] Then, fluorescence intensity of the samples was measured with a microplate reader (Synergy H1, BioTek) with λEx: 550 nm and λEm: 590 nm. Percent of viability was calculated according to cell only and media controls.
J774A.1 cells (J774) were infected with L. infantum metacyclic promastigotes. […] After controlled lysis of the infected macrophages, the released parasites were quantified using a resazurin based viability assay.

[6] = tested on: Murine macrophage cells (J774); experiment: Cytotoxicity assay J774, resazurin reduction; assay type: cell-based; details: cytotoxicity, 72 h
Description: as §3, §4

[7] = read-out: viability, L.major amastigote (25 µM)
[8] = 2.5 µM, read-out: viability, T.brucei (2.5 µM)
[9] = 72 h, read-out: Residual viability, T.brucei (2.5 µM), BSF, 2.5 µM, 72 h

Structure (SMILES)	viability at 25 µM (L. major promastigotes; 72 h) [%]	viability at 25 µM (L. major promastigotes; 25 µM) [%]	viability at 2.5 µM [1] [%]	viability at 25 µM [1] [%]	viability at 25 µM [2, 7] [%]	viability at 2.5 µM [2] [%]	viability at 2.5 µM (T. brucei brucei BSF; [8]) [%]	viability at 25 µM (T. brucei brucei BSF) [%]	viability at 2.5 µM (T. cruzi trypomastigotes) [%]	viability at 25 µM (T. cruzi trypomastigotes) [%]	viability at 2.5 µM (E. histolytica) [%]	viability at 25 µM (E. histolytica) [%]	viability at 72 h, 2.5 µM [3] [%]	viability at 72 h, 25 µM [3] [%]	melting point [°C]	viability at 25 µM [4] [%]	other results
Cc1ccc(NC[C@H](O)[C@@H](N)Cc2ccccc2)cc1 [LTC-1043, (2S,3S)-3-Amino-4-phenyl-1-(p-tolylamino)butan-2-ol]	83.4 ± 5.16	22.1 ± 5	71.6 ± 5.44	16.9 ± 2.12	22.1 ± 2.55	76.2 ± 2.46	80.6 ± 2.56	2.22 ± 1.09	61.9 ± 0.89	31.9 ± 1.78	74.3 ± 21.6	97.3 ± 19.4	95.7 ± 7.77	93.5 ± 8.83	57 to 59	63.4 ± 7.61	–
CC(C)(C)c1ccc(NC[C@H](O)[C@@H](N)Cc2ccccc2)cc1 [LTC-1034, (2S,3S)-3-Amino-1-((4-(tert-butyl)phenyl)amino)-4-phenylbutan-2-ol]	79.3 ± 17.2	6.26 ± 1.21	68 ± 22.2	3.46 ± 0.12	15.2 ± 1.86	73.9 ± 0.76	72.8 ± 4.34	2.34 ± 1.3	60.1 ± 2.2	30.8 ± 2.5	52 ± 6.13	123 ± 5.09	96.6 ± 5.47	64.1 ± 4.5	74 to 76	105 ± 5.69	viability at 25 µM ([2]; 72 h, read-out: Residual viability, L.major amastigote (25 µM)): 15.2%
N[C@@H](Cc1ccccc1)[C@@H](O)CNc1ccc(F)cc1F [LTC-1032, (2S,3S)-3-Amino-1-((2,4-difluorophenyl)amino)-4-phenylbutan-2-ol]	86.3 ± 2.23	0.57 ± 0.34	84.1 ± 3.01	9.17 ± 0.49	76 ± 0.96	–	-0.94 ± 0.33	2.18 ± 0.88	59.8 ± 1.24	29 ± 1.22	56.3 ± 3.32	118 ± 17.6	96.3 ± 3.07	96.6 ± 11.9	89 to 91	73 ± 5.58	viability at 2.5 µM (T. brucei brucei BSF; [9]): < 10%
N[C@@H](Cc1ccccc1)[C@@H](O)CNc1cccc(C(F)(F)F)c1 [LTC-1029, (2S,3S)-3-Amino-4-phenyl-1-((3-(trifluoromethyl)phenyl)amino)butan-2-ol]	88.9 ± 5.45	-0.13 ± 0.19	82.2 ± 2.25	0.37 ± 0.05	67.9 ± 2.07	–	-0.97 ± 0.28	2.21 ± 0.85	56.8 ± 2.34	6.68 ± 2.95	70.3 ± 18.1	15.4 ± 5.25	94.9 ± 4.03	91.9 ± 10.1	72 to 74	76.8 ± 12.2	viability at 2.5 µM (T. brucei brucei BSF; [9]): < 10%
N[C@@H](Cc1ccccc1)[C@@H](O)CNc1ccc(OC(F)(F)F)cc1 [LTC-1028, (2S,3S)-3-Amino-4-phenyl-1-((4-(trifluoromethoxy)phenyl)amino)butan-2-ol]	81.6 ± 2	0.32 ± 0.34	78.3 ± 1.53	0.58 ± 0.24	59.3 ± 3.42	–	19.7 ± 4.81	2.01 ± 0.92	61 ± 0.78	12.4 ± 0.9	71.9 ± 4.72	37.8 ± 19.9	97.4 ± 5.26	-0.47 ± 0.78	112 to 114	79.1 ± 22	–
N[C@@H](Cc1ccccc1)[C@@H](O)CNc1ccc(F)cc1 [LTC-1026, (2S,3S)-3-Amino-1-((4-fluorophenyl)amino)-4-phenylbutan-2-ol]	93.3 ± 1.34	34.1 ± 3.37	84.16 ± 0.61	56.98 ± 0.29	59.5 ± 7.56	–	71.2 ± 5.23	2.26 ± 0.92	58.6 ± 1.12	57.8 ± 6.73	65.6 ± 10.1	113 ± 30.5	94.6 ± 3.96	-0.01 ± 0.89	88 to 90	102 ± 4.55	–
CC(C)(C)OC(=O)NC(Cc1ccccc1)C(O)CNc1ccc(C(C)(C)C)cc1 (stereo not shown) [LTC-1035]	89.5 ± 1.08	2.19 ± 1.75	68.3 ± 1.6	0.84 ± 0.54	27.7 ± 0.6	71.4 ± 0.91	71.2 ± 5.31	2.22 ± 0.96	63.9 ± 2.75	25.6 ± 1.61	48.5 ± 2.26	101 ± 21.2	92.3 ± 5.33	95.4 ± 11.3	–	11.4 ± 1.86	EC50 ([5]; Leishmania infantum, J774, read-out: EC50 L. infantum rescue assay, intramacrophage (J774), 18 concentrations): 6.7 ± 1.7 µM; EC50 ([5]; read-out: EC50 L. infantum rescue assay, intramacrophage (J774), 18 concentrations): 6.67 ± 1.7 µM; EC50 (T. brucei brucei BSF; read-out: EC50 T. brucei BSF, dose response, triplicate, ± SD (Table 2) / ± SE (S3 Table)): 2.9 ± 1.7 µM; EC50 ([6]; Mus musculus, J774, 72 h): > 25 µM; EC50 [6]: > 16 µM
